# Assay results published in patent US12173018B2, “Penicillin-binding protein inhibitors” (priority 2018, dated 2024).
# pEC50: −log10 of the molar value. Read-outs that look alike come from different tables or passages of the source.
# Columns and labels:
# [1] = molecular target: E. coli PBP3 (Escherichia coli (strain K12), UniProt P0AD68); test: E. coli PBP3 Bocillin-FL fluorescence polarization competition binding assay
# How it was run: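 Purified PBP (1.5 μM final) was combined with test compound (0–1000 μM) and Bocillin-FL (fluorescent penicillin V, 0.1 μM final) in 50 mM Hepes pH 8.0, 300 mM NaCl, 5% glycerol.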
# [2] = system: E. coli DH5α empty pLBII vector control strain; test: microbe, parasite or virus in culture; assay type: cell-based, Escherichia coli; settings: Escherichia coli, read-out: Microbiological Activity (MIC in mg/L), E. coli DH5α/pLBII
# How it was run: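 MIC was the lowest concentration visibly free of growth after 16–20 h at 37 °C, against 5×10^5 CFU/mL of the empty-pLBII DH5α control strain. Twofold compound dilutions were made in cation-adjusted Mueller-Hinton broth.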
# [3] = molecular target: E. coli PBP2 (Escherichia coli (strain K12), UniProt P0AD65); test: E. coli PBP2 Bocillin-FL fluorescence polarization competition binding assay
# How it was run: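 Purified PBP2 at 1.5 μM final was preincubated with boronic acid inhibitor, then Bocillin-FL added to 0.1 μM final in Hepes pH 8.0/NaCl/glycerol buffer. Polarization was monitored 90 min; the concentration halving probe binding is reported as EC50.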
# [4] = molecular target: E. coli PBP1a (Escherichia coli (strain K12), UniProt P02918); test: Radioligand competition binding assay with 14C-labeled boronic acid probe, PBP1a
# How it was run: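 Purified E. coli PBP1a (0.1 μM) preincubated 60 min with test boronic acid inhibitor in 20 mM Tris pH 7.5, 500 mM NaCl, 0.1% Triton X-100, then 60 min with 20 μM ^14C-labeled boronic acid probe. Bound probe recovered by spin desalting and counted by scintillation; EC50 reported.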
# [5] = system: engineered strain of Escherichia coli harboring CTX-M15; test: microbe, parasite or virus in culture; assay type: cell-based; settings: Escherichia coli, read-out: Microbiological Activity (MIC in mg/L), E. coli DH5α/pLBII-CTX-M15, engineered strain producing CTX-M15
# [6] = molecular target: E. coli PBP4 (Escherichia coli (strain K12), UniProt P24228); test: E. coli PBP4 Bocillin-FL fluorescence polarization competition binding assay
# Text: To determine the ability of boronic acid-based test PBP inhibitors to bind Penicillin Binding Proteins (PBPs), Bocillin-FL (fluorescently-labeled penicillin V; ThermoFisher Scientific) was used in a fluorescence polarization (FP) competition binding assay to assess inhibitor binding to PBP2, PBP3 or PBP4 from Escherichia coli. PBPs were cloned and purified as described previously (King, D. T, et al., ACS Infectious Diseases 2015, 1, 175-184). To establish assay conditions for competition binding, an enzyme titration/saturation binding experiment was initially performed. Bocillin-FL was prepared at 0.2 μM in a buffer comprised of 50 mM Hepes (pH 8.0), 300 mM NaCl and 5% (v/v) glycerol. Saturation binding was performed by mixing 40 μl of PBP solutions ranging in concentrations from 0-12 μM with 40 μl of the 0.2 μM Bocillin-FL solution, in individual wells of a black 384-well microplate. FP was measured immediately upon mixing (Excitation, 490 nm; Emission, 520 nm; g-factor, 0.96), using a Cytation3 (BioTek) microplate reader and measured continuously for up to 120 minutes. […] Assays (80 μl final volume) were performed with PBPs at a final concentration of 1.5 μM, Bocillin-FL at 0.1 μM and beta-lactam concentrations that ranged from 0-1000 μM. […] Bocillin-FL was added and the FP immediately measured for 60 minutes (90 minutes for PBP2). The beta-lactam potency was reported as the concentration of beta-lactam required to reduce binding of Bocillin-FL by […] (EC50). […] Binding assays for boronic acid PBP inhibitors were performed in an identical fashion.
# [7] = system: E. coli ATCC 25922; test: Broth microdilution MIC, E. coli ATCC 25922; assay type: cell-based; settings: Escherichia coli, ATCC25922; E. coli ATCC 25922, broth microdilution; read-out: MIC E. coli 25922
# How it was run: (§1)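 MIC = lowest concentration showing no visible growth after 16-20 h at 37° C. Cation-adjusted MH broth, 2-fold serial dilutions, starting inoculum 5×10^5 CFU/mL, per CLSI methods.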
# [8] = system: K. pneumoniae UMM; test: microbe, parasite or virus in culture; assay type: cell-based; settings: Klebsiella pneumoniae; K. pneumoniae UMM producing SHV-5 and KPC-2; read-out: MIC K. pneumoniae UMM
# How it was run: as §1
# [9] = system: E. coli AG100A; test: microbe, parasite or virus in culture; assay type: cell-based; settings: Escherichia coli, read-out: MIC E. coli AG100A
# How it was run: as §1
# [10] = system: E. coli 901C; test: microbe, parasite or virus in culture; assay type: cell-based; settings: Escherichia coli; hyper-permeable E. coli 901C, broth microdilution; read-out: MIC E. coli 901C
# How it was run: as §1
# [11] = system: E. coli AG100; test: Broth microdilution MIC, E. coli AG100 (wild-type parent); assay type: cell-based; settings: Escherichia coli; wild-type parent E. coli AG100, broth microdilution; read-out: MIC E. coli AG100
# How it was run: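 Starting inoculum of 5×10^5 CFU/mL, from colonies grown 3-5 h in Mueller-Hinton broth with divalent cations, added to two-fold compound dilution series.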
structure (smiles),measurement,setting,value
"CCN1CCN(C(=O)NC(C(=O)N[C@H]2Cc3cc(C)cc(C(=O)O)c3OB2O)c2csc(N)n2)C(=O)C1=O (stereo partly drawn) [Example 20, (3R)-3-(2-(2-aminothiazol-4-yl)-2-(4-ethyl-2,3-dioxopiperazine-1-carboxamido)acetamido)-2-hydroxy-6-methyl-3,4-dihydro-2H-benzo[e][1,2]oxaborinine-8-carboxylic acid]",pEC50,[1],3.30 to 4.52
same,MIC,[2],32 to 64 mg/L
same,pEC50,"[3]; fluorescence polarization competition binding with Bocillin-FL, read-out: E. coli K12 PBP2 Potency (EC50)",< 3.30
same,pEC50,[4],> 5.00
same,MIC,[5],32 to 64 mg/L
same,pEC50,"[6]; fluorescence polarization competition binding with Bocillin-FL, read-out: E. coli K12 PBP4 Potency (EC50)",< 3.30
"CCN1CCN(C(=O)N[C@H](Cc2ccc(O)c(O)c2)C(=O)N[C@H]2Cc3cccc(C(=O)O)c3OB2O)C(=O)C1=O [Example 40, (R)-3-((R)-3-(3,4-dihydroxyphenyl)-2-(4-ethyl-2,3-dioxopiperazine-1-carboxamido)propanamido)-2-hydroxy-3,4-dihydro-2H-benzo[e][1,2]oxaborinine-8-carboxylic acid]",pEC50,[1],3.30 to 4.52
same,pEC50,[6],3.30 to 4.52
"CCN1CCN(C(=O)NC(C(=O)N[C@H]2Cc3cccc(C(=O)O)c3OB2O)c2ccc(O)cn2)C(=O)C1=O (stereo partly drawn) [Example 89, (3R)-3-(2-(4-ethyl-2,3-dioxopiperazine-1-carboxamido)-2-(5-hydroxypyridin-2-yl)acetamido)-2-hydroxy-3,4-dihydro-2H-benzo[e][1,2]oxaborinine-8-carboxylic acid]",MIC,[7],8 to 16 µg/mL
same,pEC50,"[1]; fluorescence polarization competition binding with Bocillin-FL, read-out: E. coli K12 PBP3 Potency",> 4.52
same,MIC,[8],8 to 16 µg/mL
same,MIC,[9],2 to 4 µg/mL
same,MIC,[10],0.5 to 1 µg/mL
same,pEC50,[3],3.30 to 4.52
same,MIC,[11],32 to 64 µg/mL
same,MIC,[5],8 to 16 mg/L
same,pEC50,[6],3.30 to 4.52
"C[C@@H](O)[C@H]1C(=O)N2C(C(=O)O)=C(S[C@@H]3CN[C@H](C(=O)N(C)C)C3)[C@H](C)[C@H]12 [meropenem, reference compound]",pEC50,"[6]; assay validation with beta-lactams, PBP 1.5 μM, Bocillin-FL 0.1 μM, read-out: EC50 with PBP4 (reduction of Bocillin-FL binding)",> 5.70
